Assay results: PubChem BioAssay AID720696 (Broad Institute, 2013)

Test system: Clone20 osteoblast Shn3 3'UTR firefly luciferase, 24 h
Assay: inhibitors of Schnurri-3 3'UTR luciferase expression – cell-based, luminescence, dry powder, dose response (AID 720696)

## CN(C)S(=O)(=O)c1cccc(NC(=O)c2cccc(S(=O)(=O)N3CCc4ccccc43)c2)c1
  AC50: 2.41 µM

## CCOC(=O)C1CCN(C(=O)c2ccc(OCC(=O)Nc3cccc(C(F)(F)F)c3)c(OC)c2)CC1
  AC50: 1.4 µM

## COc1ccc(NC(=O)c2nc(S(=O)(=O)Cc3cccc(C)c3)ncc2Cl)c(OC)c1
  AC50: 3.86 µM

## Cc1cc(N2CCCC2=O)cc(C)c1S(=O)(=O)NCCOc1ccc(C(C)(C)C)cc1
  AC50: 0.797 µM

## COc1ccc(Nc2nc(N3CCCCC3)c3ccccc3n2)cc1
  AC50: 1.1 µM

## CN(CC(=O)Nc1cccc(S(=O)(=O)N2CCOCC2)c1)CC(=O)Nc1ccc(Cl)c(C(F)(F)F)c1
  AC50: 0.877 µM

## CCCc1nnc(NC(=O)c2nc(S(=O)(=O)Cc3ccc(C)cc3)ncc2Cl)s1
  AC50: 3.83 µM

## CCOC(=O)C1(Cc2ccc(Cl)cc2)CCN(C(C)Cc2ccc(O)c(OC)c2)CC1 (stereo not drawn)
  AC50: 1.62 µM

## COc1cc(CN2CCc3ccccc3C2)ccc1O
  AC50: 2.09 µM

## O=C(c1nnsc1S(=O)c1ccc(Cl)cc1)N1CCOCC1 (stereo not drawn)
  AC50: 5.08 µM

## CN(C(=O)COc1ccccc1C(=O)NCCOc1ccccc1)c1ccccc1
  AC50: 1.92 µM

## CC(=O)Nc1cccc(NC(=O)CSc2ncc(-c3ccc(Cl)cc3)n2Cc2ccco2)c1
  AC50: 3.38 µM

## Fc1ccc(-n2nnnc2-c2cnc(-c3cccs3)nc2C(F)(F)F)cc1
  AC50: 2.76 µM

## CC(C)(C)NC(=O)CSc1nc2ccc(NC(=O)CSc3nnnn3Cc3ccccc3)cc2s1
  AC50: 2.14 µM

## COc1ccccc1N1CCN(c2ncc(C(=O)N3CCN(c4cccc(Cl)c4)CC3)c3ccccc23)CC1
  AC50: 2.54 µM

## CCOC(=O)c1ccc(NC(=O)Cn2ncc(Cl)c(Cl)c2=O)cc1
  AC50: 2.56 µM

## CC(C)[C@H](NC(=O)OC(C)(C)C)c1nnc(S(=O)(=O)Cc2c(F)cccc2Cl)o1
  AC50: 17.1 µM

## CC(=O)N1CCN(C(=O)CCc2cc(C(C)(C)C)c(O)c(C(C)(C)C)c2)CC1
  AC50: 4.01 µM

## COc1ccc2c(c1)c(CC(=O)Nc1cc(C)ccc1C)c(C)n2C(=O)c1ccc(Cl)cc1
  AC50: 3.24 µM

## Cc1cc2c(cc(C(=O)N3CCC(C(=O)NC4CCCC4)CC3)n2Cc2c(F)cccc2Cl)o1
  AC50: 21.3 µM

## COc1ccc(NS(=O)(=O)c2ccc(C(=O)N3CCCCCC3)cc2)cc1
  AC50: 3.7 µM

## Nc1nonc1C(=O)NCCNCc1cc(Br)ccc1OCc1ccc(F)cc1
  AC50: 2.03 µM

## O=C1CSc2ccc(C(=O)Nc3cccc(S(=O)(=O)Nc4ccc(Br)cc4)c3)cc2N1
  AC50: 1.99 µM

## CCCOc1ccccc1C1CC(=O)Nc2cc3c(cc21)OCO3 (stereo not drawn)
  AC50: 2.16 µM

## O=c1c2ccccc2nc2n1C(CSCc1ccc(Cl)cc1Cl)CS2 (stereo not drawn)
  AC50: 2.01 µM

## CN(C)c1nc(-c2ccccn2)nnc1-c1ccccc1
  AC50: 2.62 µM

## COc1cc2ncnc(N[C@H](C)c3ccccc3)c2cc1OC
  AC50: 5.13 µM

## Cc1ccc2cc(CN(CC3CCCO3)C(=O)NC3CCCCC3)c(=O)[nH]c2c1C (stereo not drawn)
  AC50: 5.22 µM
